# Source: patent US20120172650A1, “USE OF SO[…] AN ANALOGUE THEREOF IN COMBINATION WITH EXTERNAL RADIATION THERAPY” (priority 2009, published 2012)
# Where two headings read alike, the source gives them in different places.
# Tests used:
# GH3 cells [1] = assay: Apoptosis and cell cycle analysis by FACScan flow cytometry (propidium iodide); format: cell-based, rat; conditions: for apoptotic sub-G1 cells: 48 hours after 10 Gy radiation
# Procedure: Apoptosis and cell cycle distribution was analyzed using a FACScan flow cytometer (BD Biosciences, San Jose, Calif.). The level of apoptosis was quantified by measuring the number of sub-diploid (sub-G1) cells. Briefly, GH3 cells were plated in 60 mm dishes at a density of approximately 500,000 cells/dish and treated with lanreotide and gamma irradiation. Approximately 48 to 168 hours after exposure, the cells were collected and washed with cold PBS supplemented with 5 mM EDTA. Cells were re-suspended in cold PBS-EDTA solution and fixed with cold 100% ethanol. After incubation for 30 minutes at room temperature, the cells were centrifuged and the pellet of cells was treated with 100 μg/ml of RNase A in a PBS-EDTA solution for 30 minutes at room temperature. Propidium iodide (PI) was added to a final concentration of 50 μg/ml and the DNA content was analyzed with a FACScan flow cytometer (BD Biosciences, San Jose, Calif.). The percentage of cells in the apoptotic sub-G1, G1, S, and G2/M phases was calculated.
# GH3 cells were placed in 60 mm Petri dishes at a concentration of approximately 500,000 cells/dish and allowed to grow overnight. Lanreotide at 100 nM was added at 48 hours, 24 hours or immediately (0 hours) before irradiation. Cells were irradiated with 10 Gy gamma radiation at room temperature and collected 48, 72, 96 and 168 hours after exposure.
# The DNA content of the cells was analyzed using a FACScan and the percentages of cells in the apoptotic sub-G1, G1, S and G2/M phases were calculated. […] The percentage of cells in sub-G1, G1, S and G2/M phases at 48 hours was 1.4±0.2%, 73.2±1.0%, 8.4±1.0% and 16.9±1.8%, respectively.
# GH3 cells [2] = format: cell-based, rat; conditions: for surviving fraction at 10 Gy: 100 nM lanreotide, plus 10 Gy radiation (radiation alone 0.0006); for cell survival rate (colony forming units): 21 days
# Text: Currently, there are no human pituitary GH-secreting cell lines that can be maintained in a differentiated state in vitro for sufficient time for colony formation assessment (Danila, D. C. et al., J. Clin. Endocrinol. Metab., 2001, 86:2976-8; Danila, D. C. et al., J. Clin. Endocrinol. Metab., 2000, 85:1180-7). As such, a rat GH3 pituitary tumor cell line was purchased from ATCC. The GH3 cells were maintained in DMED/F-12 medium (Gibco BRL, Grand Island, N.Y.) supplemented with 10% fetal calf serum, 100 units/ml penicillin and 100 μg/ml streptomycin in a 37° C. humidified incubator with a mixture of 95% air and 5% CO2. All experiments were performed on exponentially growing cells with a doubling time of approximately 30 hours.
# GH3 cells were detached from the cell culture support using a 0.05% trypsin-EDTA solution. The collected cells were counted, diluted in fresh growth medium and plated in triplicate in 60 mm Petri dishes (BD Biosciences, San Jose, Calif.) at dilutions of approximately 100-100,000 cells/dish. Lanreotide (Biomeasure, Inc., Milford, Mass., USA) was added to the diluted cells at final concentrations of 1-1000 nM. The cells were irradiated with 0-10 Gy at room temperature using a ^137Cs source with a dose rate of 300 cGy/min. Following exposure to lanreotide or gamma irradiation, the media was drained from the dish, the cells were washed twice with PBS (phosphate buffered saline) solution and the plates were filled with fresh growth medium. After incubation at 37° C. for 21 days, the cells were stained with 0.25% crystal violet. Colonies containing ≧50 cells were counted under a dissecting microscope and survival curves were generated. The plating efficiency (PE) was calculated as the percentage of cells plated that grew into colonies. The surviving fraction (SF) was defined as the fraction of cells surviving, i.e. number of colonies/(number of […]×PE).
# GH3 cells were plated in 60 mm tissue culture dishes and incubated overnight prior to treatment with the somatostatin agonist analog. Lanreotide was added to the cells to a final concentration of 1-1000 nM. After a 21 day incubation period in the presence of lanreotide the cells were stained and colonies with >50 cells were counted.
# GH3 cells were plated in tissue culture dishes and allowed to incubate overnight prior to treatment. At 48, 24 or 0 hours before radiation exposure, lanreotide was added to the cells at a final concentration of 100 nM or 1000 nM. At 48, 24 or 0 hours after the addition of the lanreotide, the GH3 cells were irradiated with 0-10 Gy at room temperature with a Cs-137 gamma irradiator. Following irradiation, cells with 24-hour or 0-hour pre-exposure to lanreotide were incubated in lanreotide-containing media for an additional 24 or 48 hours, respectively. After a total of 48-hour exposure, lanreotide-containing media was removed from the plates, the cells washed twice with PBS solution and fresh growth media added to the cells. Cells that were irradiated without exposure to lanreotide were also washed twice with PBS and supplied with fresh media. The cells were incubated for 21 days for colony formation.
# GH3 xenograft tumors = assay: Mouse GH3 xenograft tumor model, tumor growth delay; format: in vivo, nude mice
# Procedure: Male nude mice, 8 weeks old and 20-25 grams in body weight, were used in this study (Charles River Laboratories, Hollister, Calif.). Prior to experimentation the mice were tested and found to be negative for specific pathogens. The mice were maintained under specific-pathogen-free conditions and allowed to breed. Sterilized food and water were available ad libitum.
# Tumors were initiated in the in the right flank of the mice by a subcutaneous injection of 5×10^6 tumor cells suspended in 100 μl of a 1:1 mixture of Hank's solution and Matrigel (BD Biosciences, San Jose, Calif.). Each mouse received one inoculation injection. When the tumors reached an average size of 120 mm^3 (80-200 mm^3), the mice were randomly assigned to different treatment groups with 5-8 mice in each group. Lanreotide was administered to each mouse via subcutaneous injection. […]
# Local irradiation of individual tumors was carried out as follows. Unanesthetized tumor-bearing mice were placed in lead boxes, positioned so as to have the tumors protruding through a cut-out window at the rear of each box. The radiation dose was delivered using a Philips RT-250 200 kVp X-ray unit (12.5 mA; Half Value Layer, 1.0-mm Cu) at a dose rate of 138 cGy/min. The tumors were exposed to 150-250 cGy per fraction daily for 5 consecutive days as specified in each experiment.
# (§1) Tumor volume was calculated using the formula: tumor volume (mm^3)=π/6×length×width^2. The length and width of the tumors were measured with calipers before treatment and three times a week thereafter, until the tumor volume reached at least 4 times (4×) the pre-treatment volume. The tumor volume quadrupling (4×) time was determined by a best-fit regression analysis. The tumor growth delay (TGD) time (in days) is the difference between the tumor volume quadrupling time of treated tumors compared to the tumor volume quadrupling time of untreated control tumors. Both the tumor volume quadrupling time and tumor growth delay time were calculated for each individual animal and then averaged for each group. In some experiments, a complete response of tumors was recorded if a tumor shrunk to the point that it was not palpable at the end of the experiment. Body weight was measured twice a week.
# [3] = Tolerability in GH3 tumor-bearing mice (body weight, appearance, activity); format: in vivo, nude mice
# Procedure: as §1
structure (smiles),measurement,setting,value
"CC(C)[C@@H]1NC(=O)[C@H](CCCCN)NC(=O)[C@@H](Cc2c[nH]c3ccccc23)NC(=O)[C@H](Cc2ccc(O)cc2)NC(=O)[C@@H](NC(=O)[C@H](N)Cc2ccc3ccccc3c2)CSSC[C@@H](C(=O)N[C@H](C(N)=O)[C@@H](C)O)NC1=O [lanreotide, D-2-Nal-Cys-Tyr-D-Trp-Lys-Val-Cys-Thr-NH2]",percentage of cells in sub-G1 phase,GH3 cells [1]; 100 nM lanreotide alone (control 1.4±0.2% at 48 hours),2.28±0.3%
same,percentage of cells in S phase,GH3 cells [1]; 100 nM lanreotide alone (control 8.4±1.0%),7.72±0.8%
same,percentage of cells in G2/M phase,GH3 cells [1]; 100 nM lanreotide alone (control 16.9±1.8%),16.2±0.5%
same,percentage of cells in G1 phase,GH3 cells [1]; 100 nM lanreotide alone (control 73.2±1.0%),73.8±1.1%
same,apoptotic sub-G1 cells,GH3 cells [1]; 100 nM lanreotide 0 hours pre-exposure (radiation alone 4.9%),13.4%
same,apoptotic sub-G1 cells,GH3 cells [1]; 100 nM lanreotide 24 hours pre-exposure (radiation alone 4.9%),9.3%
same,apoptotic sub-G1 cells,GH3 cells [1]; 100 nM lanreotide 48 hours pre-exposure (radiation alone 4.9%),8.6%
same,sub-G1 cell fraction,"GH3 cells [1]; 168 hours after 10 Gy radiation, radiation plus 100 nM lanreotide (radiation alone 12%)",20-22%
same,surviving fraction at 10 Gy,GH3 cells [2]; 0 hour pre-exposure,0.00042
same,surviving fraction at 10 Gy,GH3 cells [2]; 24 hours pre-exposure,0.0004
same,surviving fraction at 10 Gy,GH3 cells [2]; 48 hours pre-exposure,0.00022
same,effect on radiation survival curves,GH3 cells [2]; 1000 nM lanreotide for 48 hours with 0-10 Gy radiation,did not alter the shape and slopes of the radiation survival curves
same,IC50,"GH3 cells [2]; GH3 cells, 21 day incubation in the presence of lanreotide, read-out: IC50 (50% inhibition of cell growth), colony formation",57 nM
same,cell survival rate (colony forming units),GH3 cells [2]; lanreotide 1 nM,75%
same,cell survival rate (colony forming units),GH3 cells [2]; lanreotide 10 nM,56%
same,cell survival rate (colony forming units),GH3 cells [2]; lanreotide 100 nM,39%
same,cell survival rate (colony forming units),GH3 cells [2]; lanreotide 1000 nM,27%
same,reduction of clonogenic survival compared with untreated controls,"GH3 cells [2]; lanreotide alone 100 nM or 1000 nM for 48 hours, without radiation",5-10%
same,"tumor growth delay time, pre-administration plus radiation","GH3 xenograft tumors; 10 mg/kg lanreotide 5 days, then lanreotide plus 150 cGy daily for 5 days (radiation alone 15.5±8.8 days)",15.1 ± 8.6 days
same,once daily vs twice daily dosing in reducing tumor growth,"GH3 xenograft tumors; 2.5, 5 or 10 mg/kg s.c. qd or bid for 5 days, p=0.3-0.9",lanreotide delivered once a day was as effective as lanreotide delivered twice daily
same,tumor growth 4× delay,"GH3 xenograft tumors; dose response study, 10 mg/kg s.c. daily for 5 days (optimal dose, bell-shaped curve)",13.1 ± 4.7 days
same,complete tumor regression,"GH3 xenograft tumors; irradiation and combination therapy groups, study terminated after 60 days",Two mice from the irradiation and combination therapy groups exhibited complete tumor regression
same,4×TGD,"GH3 xenograft tumors; lanreotide alone 10 mg/kg daily for 10 days, p=0.06 vs. control",8.3 ± 8.3 days
same,tumor growth 4× delay,"GH3 xenograft tumors; regimen comparison, 5 mg/kg twice daily for 5 days",1.1 ± 3.1 days
same,tumor growth 4× delay,"GH3 xenograft tumors; regimen comparison, 10 mg/kg once daily for 5 days",4.9 ± 2.1 days
same,"signs of systemic toxicity (general appearance, skin reaction, body weight, activity)",[3]; 10 mg/kg for 10 days alone and in combination with 150 cGy external radiation,did not result in any obvious signs of systemic toxicity
same,"animal body weight, combination vs fractionated radiation alone",[3]; 10 mg/kg lanreotide plus 150-250 cGy/fraction for 5 days,did not cause any further decrease in animal body weight
same,general appearance and daily activity,[3]; 2.5-50 mg/kg daily for 5 days,no notable change
same,body weight compared to untreated control mice,"[3]; 2.5-50 mg/kg daily for 5 days, all doses tested",did not cause significant decrease in body weight
